This assay concerns HCT116 cells. Briefly: Total glutathione levels (GSH-Glo), HCT116. Format: cell-based. On the procedure: Measurement of glutathione levels following treatment using three cell lines: BJAB, HCT116, and normal human lung fibroblasts (NHLF) were maintained in RPMI (Wisent), McCoy’s (Wisent) or FGM-2 (Lonza) medium, respectively. For total glutathione measurement, 5000 cells /well (BJAB or HCT116) or 10,000 cells/well (NHLF) were transferred to clear-bottom 96-well assay plates (Thermo Fisher) in a volume of 50 µL. Plates were incubated overnight at 37° C. in 5% CO2, in an unsealed plastic bag with damp paper. Test compound was serially diluted in medium plus 0.4% DMSO, and 50 µL/well of each dilution was transferred to the assay plate. Assay plates were incubated at 37° C. in 5% CO2 in unsealed plastic bag with damp paper for the indicated time. For total glutathione measurement, GSH-Glo™ reagent (Promega) was prepared by diluting provided Luciferin-NT (1:100), Glutathione S-Transferase (1:100), and DTT (1 mM final) to GSH-Glo™ Reaction buffer, and 100 µL was added to assay plates, followed by 30 min incubation at room temperature, and then 100 µL Luciferin Detection Reagent was added. […] Luminescence was measured using Tecan Infinite 200Pro.
Effect on Glutathione levels: BJAB and HCT116 cells were maintained in RPMI medium (Wisent) or McCoy’s medium (Wisent), respectively. […] Total glutathione levels were determined according to the procedure described above.

Turning to `CC1=CC(=O)c2ccccc2C1=O` [menadione, Menadione], for the setting “HCT116, FIG. 3”, the “glutathione levels after treatment” value is listed as “reduction in glutathione levels”. In addition, the “glutathione levels in the presence or absence of N-acetyl cysteine” value (HCT116, with or without N-acetyl cysteine, FIG. 3) is recorded as “N-acetyl cysteine in the media prevents the reduction of glutathione”.

For the origin of these results see US20230076820A1, “Substituted Pyrazole Compounds and Methods of Using Them for Treatment of Hyperproliferative Diseases” (Bantam Pharmaceutical, LLC, priority 2016, published 2023).
